Assay results: publication PMC7118210 (Frontiers in Pharmacology, 2020)
Where two headings read alike, the source gives them in different places. One block for each compound: values may come before it.

Experiment: Single ascending dose and food-effect pharmacokinetics of naringin tablets in healthy humans
Type: in vivo, human
Details: for half-life / effect of a high-fat diet on t1/2, Tmax, Cmax and AUC / Tmax / AUC(0-inf) / AUC(0-t) / Cmax / MRT last / MRT inf / CL: human; for half-life / Tmax / AUC(0-inf) / AUC(0-t) / Cmax / MRT last / MRT inf: plasma; for effect of a high-fat diet on t1/2, Tmax, Cmax and AUC: food-effect trial, naringin 160 mg p.o.; for MRT last: read-out: MRT0-t; for MRT inf: read-out: MRT0-∞
Text: Participants were healthy males and females, 18 to 40 years old, ≥50 kg weight, 19 to 25 kg m^2 body mass index. The health condition of participants was considered good based on the screened medical history, physical examination, vital signs, electrocardiogram, and laboratory examination. […] Clinical laboratory test results (sodium, potassium, total protein, white blood and red blood cell counts, hematocrit, hemoglobin, platelet count, aspartate aminotransferase, alanine aminotransferase, gamma-glutamyl transferase, blood urea nitrogen, creatinine, total bilirubin, alkaline phosphatase, creatine kinase, lactate dehydrogenase, calcium, chloride, phosphorus, albumin, globulin, cholesterol, triglycerides, glucose, uric acid, and urinalysis) had to be within normal ranges, without other clinically significant abnormalities. During the study duration, participants were required to use barrier contraception with spermicide during sexual intercourse. During the trial, female participants were in the nonmenstrual, nonpregnant, and nonlactation periods, and they were nonsmokers. Participants were not planning a pregnancy within 6 months of the clinical trials, they communicated with the investigator, understood and complied with the study requirements, and signed informed consent.
Using the Statistical Analysis System (SAS) software (Version 9.4, SAS Institute Inc., Cary, NC, USA), subject randomization and blinding/masking were performed by statisticians from the Department of Health Statistics at the Second Military Medical University.
All blood samples were transferred into heparin-treated centrifuge tubes and centrifuged for 10 min at 4,000 rpm and 4°C. All human urine samples were mixed and transferred (4 ml) into storage tubes. All biological samples were stored at −80°C.
The optimal volume and activity in unit volume of enzyme solution [0.2 M acetic acid/water solution: 0.2 M ammonium acetate/water solution, 15:35 (v/v)] were determined through a pretest of the enzyme (rat plasma, 10 μl, 10 U μl^-1; dog plasma, 10 μl, 10 U μl^-1; human plasma, 20 μl, 20 U μl^-1; human urine, 10 μl, 10 U μl^-1). […] To each fecal sample, 9-fold methanol-normal saline (2:1, v/v) was added, mixed (18,000 rpm, 15 min) by vortexing and centrifuged (10 min, 9,000 rpm, 4°C). […] Then, all plasma, urine, and fecal samples were extracted with ethyl acetate (rat plasma, 800 μl; dog plasma, 1,000 μl; human plasma, 3,000 μl; human urine, 3,000 μl; human feces, 3,000 μl) for at least 3 min by vortexing, centrifuged for 10 min at 3,900 rpm and 4°C; supernatants were transferred into centrifuge tubes and dried with N2. The solid material was dissolved with acetonitrile-water (1:1, v/v) and injected into the ultra high-performance liquid chromatography coupled with triple quadrupole mass spectrometry (UHPLC/MS/MS) system as described below.
The analysis of nonclinical and clinical samples was performed with a UHPLC/MS/MS system that consisted of a Shimadzu Nexera X2 ultra high-performance liquid chromatography (UHPLC) (Shimadzu Corp., Kyoto, Japan) coupled with an AB Sciex API4000 triple-quadrupole mass spectrometry (MS/MS) system (AB Sciex, Foster City, CA, USA) equipped with an electrospray ionization source and controlled by Analyst (v. 1.6.2) software. […] The mobile phase consisted of 0.1% formic acid (v/v) in water (A) and 0.1% formic acid in acetonitrile (B) using a linear gradient of 90% A (0–0.5 min), 90 to 60% A (0.5–1.5 min), 60% to 40% A (1.5–3.5 min), 40% to 10% A (3.5–4.5 min), 10% A (4.5–5.5 min), 10% to 90% A (5.5–6.0 min), and 90% A (6.0–7.5 min) for plasma; and 80% A (0–0.2 min), 80 to 64% A (0.2–2.0 min), 64% to 63% A (2.0–4.4 min), 63% to 0% A (4.4–4.5 min), 0% A (4.5–5.5 min), 0% to 90% A (5.5–5.6 min), 90% A (5.6–5.9 min), 90% to 35% A (5.9–6.0 min), 35% A (6.0–6.2 min), 35 to 80% A (6.2–6.3 min), and 80% A (6.3–7.5 min) for urine and feces.

[1] = both sexes, oral, naringin in humans, clinical studies overall
[2] = both sexes, po, 40 mg, naringin 40 mg p.o. single dose
[3] = both sexes, po, 80 mg, naringin 80 mg p.o. single dose
[4] = both sexes, po, 160 mg, naringin 160 mg (high-fat diet) p.o. single dose
[5] = both sexes, po, 160 mg, naringin 160 mg p.o. single dose
[6] = both sexes, po, 320 mg, naringin 320 mg p.o. single dose
[7] = both sexes, po, 480 mg, naringin 480 mg p.o. single dose
[8] = female, po, 40 mg, naringin 40 mg p.o. single dose
[9] = female, po, 80 mg, naringin 80 mg p.o. single dose
[10] = female, po, 160 mg, naringin 160 mg p.o. single dose
[11] = female, po, 160 mg, naringin 160 mg p.o. single dose, high-fat diet group, female
[12] = male, po, 40 mg, naringin 40 mg p.o. single dose
[13] = male, po, 80 mg, naringin 80 mg p.o. single dose
[14] = male, po, 160 mg, naringin 160 mg p.o. single dose
[15] = male, po, 160 mg, naringin 160 mg p.o. single dose, high-fat diet group, male

half-life (both sexes, oral, naringenin in humans, studies overall): 2.6 ± 1.89 h
effect of a high-fat diet on t1/2, Tmax, Cmax and AUC: insignificantly altered
lag-time in plasma (human plasma, after p.o. naringin): 5.74 ± 2.38 h
time for concentrations to increase to Cmax after the lag-time (humans, after p.o. naringin): about 3.62 ± 3.19 h
SMILES: O=C1C[C@@H](c2ccc(O)cc2)Oc2cc(O)cc(O)c21 [naringenin, Naringenin]

SMILES: C[C@@H]1O[C@@H](O[C@H]2[C@H](Oc3cc(O)c4c(c3)O[C@H](c3ccc(O)cc3)CC4=O)O[C@H](CO)[C@@H](O)[C@@H]2O)[C@H](O)[C@H](O)[C@H]1O [naringin, Naringin]
Tmax [1]: 2.09 ± 1.15 h
half-life [1]: 2.69 ± 1.77 h
AUC(0-inf) [2]: 9.99 ± 4.22 ng·h/mL
AUC(0-t) [2]: 7.61 ± 3.5 ng·h/mL
Cmax [2]: 2.24 ± 0.67 ng/mL
Tmax [2]: 1.97 ± 1.11 h
half-life [2]: 2.48 ± 1.64 h
MRT last [2]: 2.66 ± 0.443 h
MRT inf [2]: 4.9 ± 1.69 h
AUC(0-inf) [3]: 12.2 ± 3.19 ng·h/mL
AUC(0-t) [3]: 9.27 ± 3.37 ng·h/mL
Cmax [3]: 2.94 ± 1.17 ng/mL
Tmax [3]: 2.09 ± 1.39 h
half-life [3]: 1.9 ± 1.22 h
MRT last [3]: 2.8 ± 0.543 h
MRT inf [3]: 3.83 ± 1.69 h
AUC(0-inf) [4]: 18.2 ± 5.81 ng·h/mL
AUC(0-t) [4]: 12.8 ± 4.74 ng·h/mL
Cmax [4]: 3.04 ± 1.15 ng/mL
Tmax [4]: 2.66 ± 1.87 h
half-life [4]: 3.11 ± 1.95 h
MRT last [4]: 3.45 ± 1.22 h
MRT inf [4]: 6.19 ± 2.77 h
AUC(0-inf) [5]: 22.4 ± 9.36 ng·h/mL
AUC(0-t) [5]: 15.7 ± 7.51 ng·h/mL
Cmax [5]: 4.29 ± 2.63 ng/mL
Tmax [5]: 2.5 ± 1.41 h
half-life [5]: 3.64 ± 3.01 h
MRT last [5]: 3.3 ± 1.12 h
MRT inf [5]: 6.54 ± 4.41 h
AUC(0-inf) [6]: 39.8 ± 32.2 ng·h/mL
AUC(0-t) [6]: 37.5 ± 32.2 ng·h/mL
Cmax [6]: 10.9 ± 12.4 ng/mL
Tmax [6]: 1.66 ± 0.99 h
half-life [6]: 2.51 ± 1.58 h
MRT last [6]: 3.17 ± 0.677 h
MRT inf [6]: 4.01 ± 1.05 h
AUC(0-inf) [7]: 21.2 ± 7.95 ng·h/mL
AUC(0-t) [7]: 19.4 ± 7.86 ng·h/mL
Cmax [7]: 5.69 ± 2.8 ng/mL
Tmax [7]: 1.66 ± 0.834 h
half-life [7]: 2.01 ± 0.498 h
MRT last [7]: 3.08 ± 0.704 h
MRT inf [7]: 3.86 ± 0.779 h
AUC(0-inf) [8]: 5.83 ± 0.737 ng·h/mL
AUC(0-t) [8]: 4.64 ± 1.01 ng·h/mL
Cmax [8]: 1.92 ± 0.516 ng/mL
Tmax [8]: 2.67 ± 1.53 h
half-life [8]: 1.49 ± 0.849 h
AUC(0-inf) [9]: 11.5 ± 2.69 ng·h/mL
AUC(0-t) [9]: 10.2 ± 2.28 ng·h/mL
Cmax [9]: 3.3 ± 0.916 ng/mL
Tmax [9]: 1.44 ± 0.657 h
half-life [9]: 1.48 ± 0.448 h
AUC(0-inf) [10]: 25.9 ± 8.47 ng·h/mL
AUC(0-t) [10]: 17.8 ± 5.04 ng·h/mL
Cmax [10]: 3.44 ± 1.08 ng/mL
Tmax [10]: 3.25 ± 1.71 h
half-life [10]: 4.57 ± 3.65 h
AUC(0-inf) [11]: 20.9 ± 4.78 ng·h/mL
AUC(0-t) [11]: 16.1 ± 3.27 ng·h/mL
Cmax [11]: 3.78 ± 1.26 ng/mL
Tmax [11]: 2.88 ± 2.02 h
half-life [11]: 2.54 ± 1.96 h
effect of a high-fat diet on t1/2, Tmax, Cmax and AUC: insignificantly altered
AUC(0-inf) [12]: 12.5 ± 3.18 ng·h/mL
AUC(0-t) [12]: 9.39 ± 3.23 ng·h/mL
Cmax [12]: 2.43 ± 0.727 ng/mL
Tmax [12]: 1.55 ± 0.622 h
half-life [12]: 3.07 ± 1.78 h
AUC(0-inf) [13]: 13.2 ± 4.16 ng·h/mL
AUC(0-t) [13]: 8.35 ± 4.36 ng·h/mL
Cmax [13]: 2.58 ± 1.43 ng/mL
Tmax [13]: 2.75 ± 1.71 h
half-life [13]: 2.46 ± 1.83 h
AUC(0-inf) [14]: 17.7 ± 9.93 ng·h/mL
AUC(0-t) [14]: 13.7 ± 9.73 ng·h/mL
Cmax [14]: 5.14 ± 3.6 ng/mL
Tmax [14]: 1.75 ± 0.5 h
half-life [14]: 2.41 ± 1.79 h
AUC(0-inf) [15]: 14.7 ± 5.83 ng·h/mL
AUC(0-t) [15]: 9.56 ± 3.57 ng·h/mL
Cmax [15]: 2.3 ± 0.201 ng/mL
Tmax [15]: 2.44 ± 1.98 h
half-life [15]: 3.86 ± 2.02 h
CL (naringin 40 mg p.o. single dose): 1120 ± 605 mL/min/kg
CL (naringin 80 mg p.o. single dose): 1720 ± 832 mL/min/kg
CL (naringin 160 mg (high-fat diet) p.o. single dose): 2870 ± 1070 mL/min/kg
CL (naringin 160 mg p.o. single dose): 2400 ± 1030 mL/min/kg
CL (naringin 320 mg p.o. single dose): 3370 ± 2180 mL/min/kg
CL (naringin 480 mg p.o. single dose): 7950 ± 6200 mL/min/kg
